Key:
[1] = Kinetic solubility assay; format: physicochemical; details: kinetic solubility, 50 mM PB (pH 7.4), shaken 24 hours at RT
Method in brief: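 Test compounds from 10 mM DMSO stock were diluted in 50 mM phosphate buffer, pH 7.4, and shaken for 24 h at RT. After PTFE filtration and centrifugation, filtrate concentration was quantified by UPLC-UV/HPLC-UV against a standard curve.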

[2] = target: T1, BCRP (BCRP-MDCKII monolayer) (Homo sapiens, UniProt Q9UNQ0); test: MDCKII-BCRP bidirectional transport assay; format: in vitro ADME; details: for MDCK-BCRP: Papp A-B: apical to basolateral
T1 construct: host or cells: MDCKII (canine kidney) cells
T1 sequence (Q9UNQ0 1-655): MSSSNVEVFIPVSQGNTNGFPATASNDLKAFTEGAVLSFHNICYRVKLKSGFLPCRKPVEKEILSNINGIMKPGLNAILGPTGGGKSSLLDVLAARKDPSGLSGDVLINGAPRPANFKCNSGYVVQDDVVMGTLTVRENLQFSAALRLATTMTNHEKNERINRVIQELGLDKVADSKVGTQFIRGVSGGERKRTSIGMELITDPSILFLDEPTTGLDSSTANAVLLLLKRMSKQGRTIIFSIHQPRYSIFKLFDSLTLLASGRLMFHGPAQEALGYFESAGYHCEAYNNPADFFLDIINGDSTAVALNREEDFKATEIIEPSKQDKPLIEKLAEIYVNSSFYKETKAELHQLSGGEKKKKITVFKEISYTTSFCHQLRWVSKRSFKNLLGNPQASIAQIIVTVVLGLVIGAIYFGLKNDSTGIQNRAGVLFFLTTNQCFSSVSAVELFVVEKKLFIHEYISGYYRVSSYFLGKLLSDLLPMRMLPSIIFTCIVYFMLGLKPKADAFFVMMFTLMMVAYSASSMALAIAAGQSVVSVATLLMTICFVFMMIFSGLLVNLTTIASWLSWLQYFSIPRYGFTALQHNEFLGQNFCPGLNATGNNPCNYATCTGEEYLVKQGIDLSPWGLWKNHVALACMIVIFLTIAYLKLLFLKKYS
Method in brief: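 Bidirectional A→B and B→A transport across PreadyPort BCRP-MDCKII monolayers (days 12–15) was run in duplicate for 120 min at 37° C, 5% CO2 after a 15 min preincubation. Compound levels were measured by LC-MS/MS. Papp and recovery were calculated, with efflux ratio indicating transporter engagement.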

[3] = target: T2, CSF-1R (Homo sapiens, UniProt P07333); test: Caliper biochemical assay, CSF-1R; details: Table 6
T2 construct: purchased Invitrogen PV3249 (lot 662393N)
T2 sequence (P07333 20-972): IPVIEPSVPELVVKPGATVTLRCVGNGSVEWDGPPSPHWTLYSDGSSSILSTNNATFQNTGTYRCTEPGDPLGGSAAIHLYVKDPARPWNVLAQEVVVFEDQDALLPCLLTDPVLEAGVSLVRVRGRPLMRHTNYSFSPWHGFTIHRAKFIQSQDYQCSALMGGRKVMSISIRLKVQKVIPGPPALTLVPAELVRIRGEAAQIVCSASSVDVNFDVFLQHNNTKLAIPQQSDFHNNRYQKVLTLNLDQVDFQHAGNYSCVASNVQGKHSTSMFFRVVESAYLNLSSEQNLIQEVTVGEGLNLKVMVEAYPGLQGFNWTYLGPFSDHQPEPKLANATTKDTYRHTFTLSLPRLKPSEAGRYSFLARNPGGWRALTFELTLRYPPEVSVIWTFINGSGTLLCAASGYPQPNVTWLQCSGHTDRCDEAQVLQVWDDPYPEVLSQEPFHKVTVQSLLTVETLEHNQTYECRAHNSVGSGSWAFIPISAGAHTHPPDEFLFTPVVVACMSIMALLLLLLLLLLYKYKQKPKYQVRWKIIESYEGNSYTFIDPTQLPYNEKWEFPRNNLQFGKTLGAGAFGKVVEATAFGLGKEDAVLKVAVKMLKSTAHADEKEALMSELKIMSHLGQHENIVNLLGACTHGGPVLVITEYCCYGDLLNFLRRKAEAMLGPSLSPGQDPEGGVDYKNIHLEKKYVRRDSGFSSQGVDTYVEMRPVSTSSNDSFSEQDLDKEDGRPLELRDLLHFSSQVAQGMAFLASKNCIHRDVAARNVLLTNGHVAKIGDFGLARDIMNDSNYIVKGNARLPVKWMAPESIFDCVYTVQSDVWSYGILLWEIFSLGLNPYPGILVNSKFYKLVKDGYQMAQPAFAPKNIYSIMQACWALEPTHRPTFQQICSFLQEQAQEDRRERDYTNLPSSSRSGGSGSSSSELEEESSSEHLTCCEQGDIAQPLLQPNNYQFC
Method in brief: (§1)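 Kinase, FAM-labelled peptide substrate, ATP and Mn^2+ incubated with compound for 3 h at 25° C, then quenched with EDTA buffer. Substrate and phosphorylated product separated by microfluidic electrophoresis and quantified by fluorescence intensity; no-enzyme wells define 100% inhibition.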

[4] = target: T3, PDGFRα (Homo sapiens, UniProt P16234); test: Caliper biochemical assay, PDGFRα; details: Table 6
T3 construct: purchased Millipore 14-467 (lot 26321_ACTI)
T3 sequence (P16234 24-1089): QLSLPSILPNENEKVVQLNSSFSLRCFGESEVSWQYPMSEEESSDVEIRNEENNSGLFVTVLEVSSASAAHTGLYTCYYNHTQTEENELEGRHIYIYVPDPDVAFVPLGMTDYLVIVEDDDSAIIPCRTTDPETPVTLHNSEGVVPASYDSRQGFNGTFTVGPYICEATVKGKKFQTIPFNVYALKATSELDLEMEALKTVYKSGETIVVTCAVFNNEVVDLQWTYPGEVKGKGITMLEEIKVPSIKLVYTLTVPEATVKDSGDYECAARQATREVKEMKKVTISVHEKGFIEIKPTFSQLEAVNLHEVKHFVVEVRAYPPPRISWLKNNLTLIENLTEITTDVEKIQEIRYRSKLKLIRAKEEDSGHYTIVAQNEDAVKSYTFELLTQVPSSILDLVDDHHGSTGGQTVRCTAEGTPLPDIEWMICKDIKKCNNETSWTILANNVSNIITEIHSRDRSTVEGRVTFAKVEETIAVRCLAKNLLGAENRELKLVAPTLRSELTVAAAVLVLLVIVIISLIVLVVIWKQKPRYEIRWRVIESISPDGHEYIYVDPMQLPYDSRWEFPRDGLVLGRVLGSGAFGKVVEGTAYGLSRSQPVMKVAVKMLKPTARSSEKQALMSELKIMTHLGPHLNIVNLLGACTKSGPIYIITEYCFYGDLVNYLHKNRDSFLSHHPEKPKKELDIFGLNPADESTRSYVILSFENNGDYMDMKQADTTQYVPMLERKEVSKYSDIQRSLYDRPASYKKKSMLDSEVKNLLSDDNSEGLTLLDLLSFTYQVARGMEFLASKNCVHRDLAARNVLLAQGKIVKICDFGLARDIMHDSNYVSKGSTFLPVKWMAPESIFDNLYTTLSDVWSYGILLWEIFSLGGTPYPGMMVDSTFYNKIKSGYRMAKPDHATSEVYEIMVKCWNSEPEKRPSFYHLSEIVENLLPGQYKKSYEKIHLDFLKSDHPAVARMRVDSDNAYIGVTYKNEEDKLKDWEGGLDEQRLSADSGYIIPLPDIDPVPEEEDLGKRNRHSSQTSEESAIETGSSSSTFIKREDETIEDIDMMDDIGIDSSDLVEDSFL
Method in brief: as §1

[5] = target: T4, wtKIT (Homo sapiens, UniProt P10721); test: Caliper biochemical assay, wtKIT; details: Table 6, read-out: KIT Biochemical IC50 avg
T4 construct: 1888289AM in the reaction mixtures
T4 sequence (P10721 26-976): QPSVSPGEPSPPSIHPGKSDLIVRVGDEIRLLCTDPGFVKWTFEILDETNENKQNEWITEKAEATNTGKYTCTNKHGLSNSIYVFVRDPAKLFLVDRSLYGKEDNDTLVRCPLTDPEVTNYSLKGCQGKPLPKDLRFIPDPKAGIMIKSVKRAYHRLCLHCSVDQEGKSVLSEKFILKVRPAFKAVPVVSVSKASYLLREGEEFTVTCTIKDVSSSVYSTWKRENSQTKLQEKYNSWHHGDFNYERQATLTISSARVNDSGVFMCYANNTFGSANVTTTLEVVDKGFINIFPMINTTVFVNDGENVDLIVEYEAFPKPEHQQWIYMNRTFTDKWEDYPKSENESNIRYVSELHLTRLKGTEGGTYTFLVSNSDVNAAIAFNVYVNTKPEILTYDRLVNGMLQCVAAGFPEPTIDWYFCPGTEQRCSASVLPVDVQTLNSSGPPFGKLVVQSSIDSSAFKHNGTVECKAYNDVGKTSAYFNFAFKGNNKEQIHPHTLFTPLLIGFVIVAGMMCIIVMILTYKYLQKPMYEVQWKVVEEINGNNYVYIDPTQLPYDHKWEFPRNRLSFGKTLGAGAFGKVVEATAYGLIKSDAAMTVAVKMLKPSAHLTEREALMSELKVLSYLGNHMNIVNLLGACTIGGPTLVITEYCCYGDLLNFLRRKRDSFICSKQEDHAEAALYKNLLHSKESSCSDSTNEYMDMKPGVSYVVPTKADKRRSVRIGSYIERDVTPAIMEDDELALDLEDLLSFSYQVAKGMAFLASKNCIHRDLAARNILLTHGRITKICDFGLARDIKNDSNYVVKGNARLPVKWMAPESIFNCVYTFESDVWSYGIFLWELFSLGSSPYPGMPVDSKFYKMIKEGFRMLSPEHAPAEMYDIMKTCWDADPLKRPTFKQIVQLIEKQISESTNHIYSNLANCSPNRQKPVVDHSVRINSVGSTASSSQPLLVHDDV
Method in brief: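 Enzyme (5.0 nM wtKIT), 1 μM FAM-labelled peptide, 400 μM ATP and 10 mM MnCl2 in HEPES pH 7.5 with 1% DMSO, incubated 3 h at 25° C. EDTA quench; substrate and phosphoproduct separated by microfluidic electrophoresis and quantified by fluorescence.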

Row | SMILES | Solubility (μM) [1] | MDCK-BCRP: Efflux Ratio [2] | MDCK-BCRP: Papp A-B [2] | IC50 [3] | IC50 [4] | IC50 [5]
1 | CCCS(=O)(=O)N1CC(c2nc(-c3ccc(Cl)c(NC(=O)c4cnc5ccccn45)c3)no2)C1 [Compound I-220] | **** (a solubility less than or equal to 2 μM) | 1.17 | 26.4 10^−6 cm/s | 50 to 500 nM | 5000 to 30000 nM | ≤ 50 nM
2 | COC(=O)N1CC(c2nc(-c3ccc(C(F)F)c(NC(=O)c4cnc5ccccn45)c3)no2)C1 [Compound I-225] | ** (a solubility greater than 10 μM and less than or equal to 50 μM) | 3.27 | 11.2 10^−6 cm/s | 50 to 500 nM | 5000 to 30000 nM | ≤ 50 nM
3 | COCCS(=O)(=O)N1CC(c2nc(-c3ccc(C)c(NC(=O)c4cnc5ccccn45)c3)no2)C1 [Compound I-235] | *** (a solubility greater than 2 μM and less than or equal to 10 μM) | 6.86 | 3.11 10^−6 cm/s | 50 to 500 nM | 5000 to 30000 nM | ≤ 50 nM
4 | COC(=O)N1CC(c2nc(-c3ccc(C)c(NC(=O)c4cnc5cc(OC[C@H](C)O)ccn45)c3)no2)C1 [Compound I-262] | ** (a solubility greater than 10 μM and less than or equal to 50 μM) | 46.5 | 0.54 10^−6 cm/s | ≤ 50 nM | 50 to 500 nM | ≤ 50 nM
5 | COC(=O)N1CC(c2nc(-c3ccc(C)c(NC(=O)c4cnc5cc(OC[C@@H](C)O)ccn45)c3)no2)C1 [Compound I-263] | * (a solubility greater than 50 μM) | 45.4 | 0.56 10^−6 cm/s | ≤ 50 nM | 50 to 500 nM | ≤ 50 nM
6 | Cc1ccc(-c2noc([C@@H](C)O)n2)cc1NC(=O)c1cnc2ccccn12 [Compound I-270] | * (a solubility greater than 50 μM) | 20.8 | 1.3 10^−6 cm/s | ≤ 50 nM | 5000 to 30000 nM | 50 to 500 nM
7 | Cc1ccc(-c2noc([C@H](C)O)n2)cc1NC(=O)c1cnc2ccccn12 [Compound I-271] | * (a solubility greater than 50 μM) | 29.6 | 1.25 10^−6 cm/s | 50 to 500 nM | 500 to 5000 nM | ≤ 50 nM
8 | COC(=O)N1CC(c2nc(-c3ccc(C)c(NC(=O)c4cnn5ccc(Br)cc45)c3)no2)C1 [Compound I-280] | **** (a solubility less than or equal to 2 μM) | 2.55 | 5.07 10^−6 cm/s | ≤ 50 nM | 5000 to 30000 nM | ≤ 50 nM
9 | CNC(=O)N1CC(c2nc(-c3ccc(C)c(NC(=O)c4cnc5ccccn45)c3)no2)C1 [Compound I-282] | ** (a solubility greater than 10 μM and less than or equal to 50 μM) | 28.1 | 0.55 10^−6 cm/s | 5000 to 30000 nM | 5000 to 30000 nM | ≤ 50 nM
10 | Cc1ccc(-c2noc(C3CN(C(=O)CO)C3)n2)cc1NC(=O)c1cnc2ccccn12 [Compound I-287] | *** (a solubility greater than 2 μM and less than or equal to 10 μM) | 0.65 | 11.8 10^−6 cm/s | 5000 to 30000 nM | 5000 to 30000 nM | 50 to 500 nM
11 | Cc1ccc(-c2noc([C@H]3C[C@@H]3F)n2)cc1NC(=O)c1cnc2ccc(F)cn12 [Compound I-288] | **** (a solubility less than or equal to 2 μM) | 1.01 | 7.81 10^−6 cm/s | 50 to 500 nM | 500 to 5000 nM | ≤ 50 nM
12 | Cc1ccc(-c2noc([C@H]3C[C@@H]3F)n2)cc1NC(=O)c1cnc2cc(N3CCC3)ccn12 [Compound I-295] | **** (a solubility less than or equal to 2 μM) | 1.58 | 6.12 10^−6 cm/s | ≤ 50 nM | ≤ 50 nM | ≤ 50 nM
13 | Cc1cc(C)cc(Nc2ccc3ncc(C(=O)Nc4cc(-c5noc([C@H]6C[C@@H]6F)n5)ccc4C)n3c2)c1 [Compound I-299] | **** (a solubility less than or equal to 2 μM) | 13.7 | 0.01 10^−6 cm/s | ≤ 50 nM | 50 to 500 nM | ≤ 50 nM
14 | CCCNc1ccn2c(C(=O)Nc3cc(-c4noc([C@H]5C[C@@H]5F)n4)ccc3C)cnc2c1 [Compound I-304] | **** (a solubility less than or equal to 2 μM) | 3.43 | 5.05 10^−6 cm/s | ≤ 50 nM | ≤ 50 nM | ≤ 50 nM
15 | Cc1ccc(-c2noc(CCO)n2)cc1NC(=O)c1cnc2ccccn12 [Compound I-306] | * (a solubility greater than 50 μM) | 23.2 | 1.46 10^−6 cm/s | 50 to 500 nM | 5000 to 30000 nM | ≤ 50 nM
16 | Cc1ccc(-c2noc(C3(N)CC4(CC(F)(F)C4)C3)n2)cc1NC(=O)c1cnc2ccccn12 [Compound I-307] | ** (a solubility greater than 10 μM and less than or equal to 50 μM) | 3.77 | 7.39 10^−6 cm/s | ≤ 50 nM | 500 to 5000 nM | ≤ 50 nM
17 | Cc1ccc(-c2noc(CC(=O)O)n2)cc1NC(=O)c1cnc2ccccn12 [Compound I-335] | * (a solubility greater than 50 μM) | 0.37 | 1.99 10^−6 cm/s | 500 to 5000 nM | 500 to 5000 nM | 50 to 500 nM
18 | Cc1ccc(-c2noc(CO)n2)cc1NC(=O)c1cnc2ccccn12 [Compound I-337] | * (a solubility greater than 50 μM) | 4.71 | 3.73 10^−6 cm/s | 50 to 500 nM | 50 to 500 nM | ≤ 50 nM
19 | COC(=O)N1CC(c2nc(-c3ccc(Cl)c(NC(=O)c4cnc5ccccn45)c3)no2)C1 [Compound I-339] | **** (a solubility less than or equal to 2 μM) | 1.75 | 13 10^−6 cm/s | ≤ 50 nM | 500 to 5000 nM | ≤ 50 nM
20 | O=C(Nc1cc(-c2noc([C@H]3C[C@@H]3F)n2)ccc1Br)c1cnc2ccccn12 [Compound I-340] | **** (a solubility less than or equal to 2 μM) | 0.28 | 80.4 10^−6 cm/s | ≤ 50 nM | 50 to 500 nM | ≤ 50 nM
21 | O=C(Nc1cc(-c2noc([C@H]3C[C@@H]3F)n2)ccc1Cl)c1cnc2ccccn12 [Compound I-341] | **** (a solubility less than or equal to 2 μM) | 0.84 | 10.1 10^−6 cm/s | ≤ 50 nM | 50 to 500 nM | ≤ 50 nM
22 | Cc1ccc(-c2noc([C@H]3CC(F)(F)CN3)n2)cc1NC(=O)c1cnc2ccccn12 [Compound I-359] | * (a solubility greater than 50 μM) | 7.14 | 4.68 10^−6 cm/s | 50 to 500 nM | 500 to 5000 nM | ≤ 50 nM
23 | Cc1nc(-c2ccc(C)c(NC(=O)c3cnc4ccccn34)c2)no1 [Compound I-360] | ** (a solubility greater than 10 μM and less than or equal to 50 μM) | 1.52 | 9.54 10^−6 cm/s | 500 to 5000 nM | 500 to 5000 nM | ≤ 50 nM

— US20240254119A1 (THIRD HARMONIC BIO, INC., priority 2022, published 2024)
